Values quoted from earlier work in publication PMC11949389 (Polish Journal of Microbiology, 2025).
In brackets after ≈: the same amount, converted by molar mass. Where two headings read alike, the source gives them in different places.

Legend:
[1] = tested on: Enterococcus sp.; conditions: ref Caballero Gómez et al. 2022
[2] = tested on: Vancomycin-sensitive Enterococcus (VSE)
[3] = tested on: Vancomycin-resistant Enterococcus (VRE); conditions: Vancomycin-resistant Enterococcus (VRE); ref Owen et al. 2019
[4] = tested on: Staphylococcus sp.; conditions: ref Caballero Gómez et al. 2022
[5] = tested on: Staphylococcus aureus
[6] = tested on: Mupirocin-resistant Staphylococcus aureus; conditions: ref Kwiatkowski et al. 2019
[7] = tested on: β-haemolytic Streptococcus spp.; conditions: ref Sim et al. 2019
[8] = tested on: Streptococcus suis; conditions: ref de Aguiar et al. 2019
[9] = tested on: Acinetobacter baumannii; conditions: combined with ciprofloxacin, ref Aleksic Sabo et al. (2021)
[10] = tested on: Klebsiella pneumoniae; conditions: ref Sayout et al. 2020, de Souza et al. 2021, Kwiatkowski et al. 2022
[11] = tested on: Malassezia pachydermatis; conditions: ref Schlemmer et al. 2019, Sim et al. 2019
[12] = tested on: Proteus mirabilis; conditions: ref Sim et al. 2019
[13] = tested on: Pseudomonas aeruginosa; conditions: Pseudomonas aeruginosa; ref Owen et al. 2019; Sim et al. 2019; Noumi et al. 2023
[14] = tested on: Candida albicans; conditions: Candida albicans; ref Sharifzadeh et al. 2019; Iraji et al. 2020; Shaban et al. 2020; Stringaro et al. 2022; Biernasiuk et al. 2022
[15] = tested on: Candida auris
[16] = tested on: Candida krusei; conditions: Candida krusei; ref Sharifzadeh et al. 2019; Iraji et al. 2020; Biernasiuk et al. 2022; Stringaro et al. 2022
[17] = tested on: Candida tropicalis; conditions: Candida tropicalis; ref Iraji et al. 2020; Stringaro et al. 2022
[18] = tested on: Staphylococcus aureus Pseudomonas fluorescens; conditions: ref Wang et al. 2020b
[19] = tested on: Campylobacter jejuni; conditions: C. jejuni; ref Šimunović et al. (2020)
[20] = tested on: Pseudomonas aeruginosa Enterococcus faecalis; conditions: ref Mechmechani et al. 2022
[21] = tested on: Salmonella Thyphimurium; conditions: ref Giovagnoni et al. 2020
[22] = tested on: Extended-spectrum beta-lactamases Escherichia coli; conditions: ESBL Escherichia coli; ref Khan et al. 2020
[23] = tested on: Candida albicans; conditions: ref Shaban et al. 2020
[24] = tested on: Candida auris; remark: listed apart in the source
[25] = tested on: staphylococcal isolates; conditions: ref Sim et al. 2019
[26] = tested on: carbapenem and polymyxin-resistant Klebsiella pneumoniae; conditions: ref de Souza et al. (2021)
[27] = tested on: carbapenem and polymyxin-resistant Klebsiella pneumoniae; conditions: murine models, compared to polymyxin B treatment; ref de Souza et al. (2021)
[28] = tested on: carbapenem-resistant E. coli and P. aeruginosa; conditions: ref Owen et al. (2019)
[29] = tested on: Vibrio anguillarum, and Vibrio harveyi; conditions: ref Rossi et al. (2021)
[30] = tested on: Salmonella Typhimurium; conditions: ref Giovagnoni et al. (2020)
[31] = tested on: amphotericin B-resistant C. albicans; conditions: varying among Candida isolates; ref Touil et al. (2020)
[32] = tested on: bacteria co-isolated with C. albicans; conditions: ref Touil et al. (2020)
[33] = tested on: HSV-2; conditions: HSV-2, 1 mmol/l; ref Wang et al. (2020a)
[34] = tested on: HIV-1; conditions: ref Mediouni et al. (2020)
[35] = tested on: C. albicans and co-isolated bacteria; conditions: carvacrol combined with cuminaldehyde; ref Touil et al. (2020)
[36] = tested on: carbapenem-resistant Klebsiella pneumoniae (CRKP) strains; conditions: with meropenem, ref Köse (2022)
[37] = tested on: Mycobacterium biofilms, including Mycobacterium abscessus and Mycobacterium fortuitum; conditions: even at sub-MIC concentrations; ref Marini et al. (2019)
[38] = Candida auris, ref Shaban et al. 2020

## Cc1ccc(C(C)C)cc1O [Carvacrol]
[1]
  MIC/Sensitivity: 100 to 450 µg/mL
[2]; Vancomycin-sensitive Enterococcus (VSE), ref Owen et al. 2019
  MIC/Sensitivity: 593.37 µg/mL (≈ 3.95 mM)
[2]; binary combinations with vancomycin, VSE, ref Owen et al. (2020)
  reduction in vancomycin’s MIC: four to eight-fold reduction
[3]
  MIC/Sensitivity: 593369 µg/mL (≈ 3950 mM)
[4]
  MIC/Sensitivity: 200 to 400 µg/mL
[5]; S. aureus, ref Sousa Silveira et al. (2020)
  MIC: 256 µg/mL (≈ 1.7 mM)
[5]; Staphylococcus aureus, ref Kwiatkowski et al. 2020, Sayout et al. 2020, Sousa Silveira et al. 2020, Macêdo et al. 2022, Noumi et al. 2023, Sharma et al. 2023
  MIC/Sensitivity: 256 to 3200 µg/mL
[6]
  MIC/Sensitivity: 480 µg/mL (≈ 3.2 mM)
[7]; β-haemolytic Streptococcus spp.
  MIC/Sensitivity: 146 to 292 µg/mL
[7]; β-hemolytic Streptococcus
  MIC90: 292 to 400 µg/mL
[8]
  MIC/Sensitivity: 156.25 µg/mL (≈ 1.04 mM)
[9]
  FICI: 0.25–0.32
[10]
  MIC/Sensitivity: 130 to 1910 µg/mL
[11]
  MIC/Sensitivity: 10 to 585 µg/mL
[12]
  MIC/Sensitivity: 146 to 292 µg/mL
[13]
  MIC/Sensitivity: 585 to 1120 µg/mL
[14]
  MIC/Sensitivity: 43.75 to 250 µg/mL
[15]; C. auris, ref Shaban et al. (2020)
  median MIC: 125 µg/mL
[15]; [38]
  MIC: 125 µg/mL (≈ 0.832 mM)
  MIC/Sensitivity: 125 µg/mL (≈ 0.832 mM)
[16]
  MIC/Sensitivity: 87.50 to 125 µg/mL
[17]
  MIC/Sensitivity: 97.5 µg/mL (≈ 0.649 mM)
[18]
  Mechanisms of action: • Targeted extracellular polymeric substances • Disruption of biofilm structures
[19]
  efflux pump inhibition: weaker effect
[20]
  Mechanisms of action: • Cell membrane destruction • Leakage of the intercellular pool • Anti-biofilm properties • Increased extracellular K+ ions concentrations
[21]
  Mechanisms of action: • Anti-inflammatory effects • Anti-oxidant properties • Enhanced epithelial barrier integrity • Reduction of bacterial translocation • Improved transepithelial electrical resistance • Inhibited bacterial growth
[22]
  Mechanisms of action: • Disintegration of bacterial cell membranes • Elevation of reactive oxygen species levels • Protected macrophage cells from bacterial invasion • Increased the release of K+ ions, ATP, and cellular DNA • Anti-biofilm properties
[23]
  Mechanisms of action: • Reduced proteinase production
[24]; ref Ismail et al. 2022
  Mechanisms of action: • Induced oxidative stress • Increased CAT, SOD and GPx enzyme activity • Decreased GR and GST enzyme activity • Caused membrane disintegration
[24]; ref Shaban et al. 2020
  Mechanisms of action: • Reduced proteinase production and host cell adherence
[25]
  MIC90: 146 to 200 µg/mL
[26]
  MIC: 130 to 260 µg/mL
[27]
  bacterial counts in infections: reduced bacterial counts
  survival: significantly improved survival
[28]
  activity: ineffective
[29]
  MIC: 940 to 7500 µM
[30]
  MIC: 1870 µM (≈ 281 µg/mL)
[31]
  MIC: 250–1,000 μg/ml
[32]
  MIC: 1,000 μg/ml
[33]
  virus release rate: 33.67%
[34]; HIV-1
  IC50: 16 µM
[34]; pretreatment of HIV
  reduction of viral infectivity: 60.6%
[35]
  MIC in combination: 60 to 250 µg/mL
[36]; checkerboard assays, CRKP
  FICI: 0.5
[36]
  CRKP strains with synergy: 8 of 25
[37]
  effect on biofilms: inhibited biofilm formation and disrupted pre-formed biofilms
